The values below come from US20180362487A1, “STEREOISOMER OF BROMADIOLONE, COMPOSITION AND RODENTICIDAL BAIT COMPRISING SAME, AND PROCESS FOR CONTROLLING TARGET RODENT PESTS” (priority 2015, published 2018).

Structures are written as SMILES.

The format of the series is in vivo, "Sprague-Dawley" SD rats. The note with it: per os tube feeding, about 13 mg bromadiolone per kg (56% D1,2 / 44% D3,4), liver on D1, D3, D7, male and female rats, FIG. 2. As for the experimental part: Separation of the configurational stereoisomers of bromadiolone is performed by high-pressure liquid chromatography (HPLC) on a LUX® Cellulose-1 chiral column (Phenomenex, Le Pecq, France) containing a chiral stationary phase constituted of particles of cellulose tris(3,5-dimethylphenyl carbamate), said particles having a mean size of 3 μm and having a mean pore size of 1000 Å. A mixture formed from acetonitrile (A) and water comprising 0.1% by volume of formic acid (B), with an A/B volume ratio of 80/20 and with a flow rate of 0.25 mL/minute in the chromatography column, is used as mobile phase. The concentration of the composition to be analysed is 1 μg of bromadiolone per millilitre of acetonitrile and the volume injected onto the column is 1 μL. Detection is performed by tandem mass spectrometry (MS/MS) in negative electrospray ionization (ESI) mode. The temperature of the nebulizer gas is 350° C. and its flow rate is 8 L/minute. The pressure of the nebulizer gas is brought to 2700 hPa. In particular, the MRM (“Multiple Reaction Monitoring”) transitions m/z 525.1→250.1 and m/z 525.1→181, corresponding to bromadiolone, are detected.
About 0.525 g (±0.025 g) of rat liver is weighed out accurately and placed in a 50 mL polypropylene tube. 10 mL of acetone are added and the suspension is homogenized using an Ultra-Turrax® homogenizer/disperser for a time of about 30 seconds. […]

In the case of `O=c1oc2ccccc2c(O)c1C(CC(O)c1ccc(-c2ccc(Br)cc2)cc1)c1ccccc1` (single isomer, unassigned) [diastereoisomer D1,2], the “persistence in the liver of the rats (hepatic concentration of the diastereoisomers)” value was “longer persistence in the liver of the rats than the persistence of said diastereoisomer D3,4”.

For the compound `O=c1oc2ccccc2c(O)c1C(CC(O)c1ccc(-c2ccc(Br)cc2)cc1)c1ccccc1` (single isomer, unassigned) [diastereoisomer D3,4], the “persistence in the liver of the rats (hepatic concentration of the diastereoisomers)” value is on record as “less persistent in the liver of target rodents”.
